{
  "source": "ChEMBL document CHEMBL2046282",
  "about": "“Structure-based optimization of aminopyridines as PKCθ inhibitors” (Bioorg Med Chem Lett, 2012)",
  "key": {"[1]": {"biological_target": "T1, Protein kinase C theta type (Homo sapiens, UniProt Q04759)", "T1 sequence (Q04759 whole entry)": "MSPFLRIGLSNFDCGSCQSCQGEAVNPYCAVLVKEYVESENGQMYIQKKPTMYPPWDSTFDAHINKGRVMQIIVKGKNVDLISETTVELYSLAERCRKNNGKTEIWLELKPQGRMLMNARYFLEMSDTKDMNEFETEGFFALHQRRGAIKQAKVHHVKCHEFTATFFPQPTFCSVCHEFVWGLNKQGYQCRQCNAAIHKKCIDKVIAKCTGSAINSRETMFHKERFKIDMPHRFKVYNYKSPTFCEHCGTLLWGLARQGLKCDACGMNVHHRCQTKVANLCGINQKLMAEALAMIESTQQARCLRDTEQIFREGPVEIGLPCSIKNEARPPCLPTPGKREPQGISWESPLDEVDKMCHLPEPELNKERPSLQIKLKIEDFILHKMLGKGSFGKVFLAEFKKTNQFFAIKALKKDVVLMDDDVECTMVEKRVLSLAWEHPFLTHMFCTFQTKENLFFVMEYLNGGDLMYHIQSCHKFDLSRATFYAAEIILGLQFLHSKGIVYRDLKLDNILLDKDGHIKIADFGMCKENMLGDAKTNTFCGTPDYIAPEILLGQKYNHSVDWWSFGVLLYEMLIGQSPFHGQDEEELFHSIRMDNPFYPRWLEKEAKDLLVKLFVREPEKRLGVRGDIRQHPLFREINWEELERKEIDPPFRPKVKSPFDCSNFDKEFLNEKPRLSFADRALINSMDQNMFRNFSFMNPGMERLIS", "experiment": "Inhibition of PKCtheta"}, "[2]": {"experiment": "Selectivity ratio of Ki for GSK3beta to Ki for PKCtheta"}, "[3]": {"biological_target": "Protein kinase C delta type (Homo sapiens, UniProt Q05655)", "sequence (Q05655 whole entry)": "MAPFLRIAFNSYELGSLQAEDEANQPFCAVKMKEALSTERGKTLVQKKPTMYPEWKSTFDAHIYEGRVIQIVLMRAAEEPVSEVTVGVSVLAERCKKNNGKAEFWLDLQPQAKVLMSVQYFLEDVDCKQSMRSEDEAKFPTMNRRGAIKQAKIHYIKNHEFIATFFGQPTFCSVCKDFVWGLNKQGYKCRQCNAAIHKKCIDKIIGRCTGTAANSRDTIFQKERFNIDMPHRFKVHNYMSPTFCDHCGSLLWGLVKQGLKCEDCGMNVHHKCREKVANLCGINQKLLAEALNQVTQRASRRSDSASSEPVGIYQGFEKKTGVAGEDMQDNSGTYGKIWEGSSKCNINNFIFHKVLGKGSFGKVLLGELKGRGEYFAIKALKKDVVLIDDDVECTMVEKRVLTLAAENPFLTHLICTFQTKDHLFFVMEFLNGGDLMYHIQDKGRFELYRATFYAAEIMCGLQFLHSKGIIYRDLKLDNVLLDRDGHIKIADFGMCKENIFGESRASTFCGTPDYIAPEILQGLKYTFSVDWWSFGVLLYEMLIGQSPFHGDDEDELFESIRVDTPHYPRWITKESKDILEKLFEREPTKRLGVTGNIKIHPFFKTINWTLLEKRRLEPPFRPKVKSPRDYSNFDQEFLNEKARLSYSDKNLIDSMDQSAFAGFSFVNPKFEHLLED", "experiment": "Inhibition of PKCdelta"}, "[4]": {"experiment": "Selectivity ratio of Ki for Src to Ki for PKCtheta"}, "[5]": {"biological_target": "Protein kinase C alpha type (Homo sapiens, UniProt P17252)", "experiment": "Inhibition of PKCalpha"}, "[6]": {"experiment": "Selectivity ratio of Ki for PKA to Ki for PKCtheta"}, "[7]": {"biological_target": "T1, Protein kinase C theta type", "experiment": "Inhibition of PKCtheta-mediated IL-2 production by cell based assay"}, "[8]": {"experiment": "Permeability from apical to basolateral side of human Caco2 cells", "assay_type": "ADME, cell-based", "conditions": "Caco-2, read-out: permeability"}, "[9]": {"experiment": "Permeability from basolateral to apical side of human Caco2 cells", "assay_type": "ADME, cell-based", "conditions": "Caco-2, read-out: permeability"}, "[10]": {"biological_target": "Phosphatidylinositol 4,5-bisphosphate 3-kinase catalytic subunit gamma isoform (Homo sapiens, UniProt P48736)", "experiment": "Inhibition of PI3Kgamma"}, "[11]": {"experiment": "Half life in mouse at 3 mg/kg, iv and 10 mg/kg, po", "assay_type": "ADME, organism-based", "conditions": "in vivo"}, "[12]": {"biological_target": "Vascular endothelial growth factor receptor 2 (Homo sapiens, UniProt P35968)", "experiment": "Inhibition of KDR"}, "[13]": {"biological_target": "Tyrosine-protein kinase ITK/TSK (Homo sapiens, UniProt Q08881)", "sequence (Q08881 whole entry)": "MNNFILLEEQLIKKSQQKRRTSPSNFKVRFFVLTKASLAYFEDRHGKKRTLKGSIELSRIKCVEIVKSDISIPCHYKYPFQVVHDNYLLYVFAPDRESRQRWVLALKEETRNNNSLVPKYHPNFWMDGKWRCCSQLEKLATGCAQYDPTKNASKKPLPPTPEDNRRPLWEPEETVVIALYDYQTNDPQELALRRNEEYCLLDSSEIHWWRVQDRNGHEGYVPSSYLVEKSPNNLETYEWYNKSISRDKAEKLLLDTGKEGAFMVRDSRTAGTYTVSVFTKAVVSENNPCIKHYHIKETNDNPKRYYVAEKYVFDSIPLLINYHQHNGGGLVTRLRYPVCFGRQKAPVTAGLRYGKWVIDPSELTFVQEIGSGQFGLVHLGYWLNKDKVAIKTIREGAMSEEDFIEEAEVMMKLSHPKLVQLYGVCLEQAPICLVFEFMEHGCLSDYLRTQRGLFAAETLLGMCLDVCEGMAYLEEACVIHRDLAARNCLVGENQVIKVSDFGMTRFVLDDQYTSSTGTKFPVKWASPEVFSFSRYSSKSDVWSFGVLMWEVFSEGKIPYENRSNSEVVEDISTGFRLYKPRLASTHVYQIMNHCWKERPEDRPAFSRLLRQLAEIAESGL", "experiment": "Inhibition of ITK"}, "[14]": {"biological_target": "Phosphatidylinositol 4,5-bisphosphate 3-kinase catalytic subunit alpha isoform (Homo sapiens, UniProt P42336)", "sequence (P42336 whole entry, canonical isoform)": "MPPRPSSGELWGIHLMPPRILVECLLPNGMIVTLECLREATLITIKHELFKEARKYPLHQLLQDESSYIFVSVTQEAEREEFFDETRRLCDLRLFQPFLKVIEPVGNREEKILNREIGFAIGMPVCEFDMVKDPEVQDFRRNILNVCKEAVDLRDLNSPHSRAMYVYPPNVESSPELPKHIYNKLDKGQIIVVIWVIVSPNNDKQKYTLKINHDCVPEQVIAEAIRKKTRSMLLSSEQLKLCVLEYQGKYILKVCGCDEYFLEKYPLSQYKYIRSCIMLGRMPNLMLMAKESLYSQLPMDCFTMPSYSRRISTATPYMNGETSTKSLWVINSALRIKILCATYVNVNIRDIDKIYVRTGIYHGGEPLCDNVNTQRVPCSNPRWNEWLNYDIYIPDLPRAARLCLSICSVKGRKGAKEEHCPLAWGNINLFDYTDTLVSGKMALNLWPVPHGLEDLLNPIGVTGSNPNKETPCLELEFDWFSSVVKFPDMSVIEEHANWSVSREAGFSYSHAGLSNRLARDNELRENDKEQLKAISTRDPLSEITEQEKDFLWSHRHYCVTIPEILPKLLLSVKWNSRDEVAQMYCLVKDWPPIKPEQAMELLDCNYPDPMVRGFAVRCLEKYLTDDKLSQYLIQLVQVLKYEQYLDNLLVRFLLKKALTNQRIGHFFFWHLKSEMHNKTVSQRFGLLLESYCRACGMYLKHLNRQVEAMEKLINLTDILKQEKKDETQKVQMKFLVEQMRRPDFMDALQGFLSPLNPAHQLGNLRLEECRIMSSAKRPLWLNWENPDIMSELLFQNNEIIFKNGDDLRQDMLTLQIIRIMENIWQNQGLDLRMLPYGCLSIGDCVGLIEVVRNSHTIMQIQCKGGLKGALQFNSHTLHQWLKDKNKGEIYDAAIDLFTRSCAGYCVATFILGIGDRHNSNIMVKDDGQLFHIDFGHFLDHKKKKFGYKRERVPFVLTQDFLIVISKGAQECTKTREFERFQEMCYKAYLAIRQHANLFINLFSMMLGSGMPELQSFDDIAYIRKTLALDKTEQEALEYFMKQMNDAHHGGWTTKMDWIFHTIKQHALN", "experiment": "Inhibition of PI3Kalpha"}, "[15]": {"biological_target": "Mitogen-activated protein kinase 3 (Homo sapiens, UniProt P27361)", "experiment": "Inhibition of ERK1"}, "[16]": {"biological_target": "Protein kinase C epsilon type (Homo sapiens, UniProt Q02156)", "experiment": "Inhibition of PKCepsilon"}, "[17]": {"biological_target": "Rho-associated protein kinase 1 (Homo sapiens, UniProt Q13464)", "experiment": "Inhibition of ROCK1"}, "[18]": {"biological_target": "Tyrosine-protein kinase Lyn (Homo sapiens, UniProt P07948)", "sequence (P07948 whole entry)": "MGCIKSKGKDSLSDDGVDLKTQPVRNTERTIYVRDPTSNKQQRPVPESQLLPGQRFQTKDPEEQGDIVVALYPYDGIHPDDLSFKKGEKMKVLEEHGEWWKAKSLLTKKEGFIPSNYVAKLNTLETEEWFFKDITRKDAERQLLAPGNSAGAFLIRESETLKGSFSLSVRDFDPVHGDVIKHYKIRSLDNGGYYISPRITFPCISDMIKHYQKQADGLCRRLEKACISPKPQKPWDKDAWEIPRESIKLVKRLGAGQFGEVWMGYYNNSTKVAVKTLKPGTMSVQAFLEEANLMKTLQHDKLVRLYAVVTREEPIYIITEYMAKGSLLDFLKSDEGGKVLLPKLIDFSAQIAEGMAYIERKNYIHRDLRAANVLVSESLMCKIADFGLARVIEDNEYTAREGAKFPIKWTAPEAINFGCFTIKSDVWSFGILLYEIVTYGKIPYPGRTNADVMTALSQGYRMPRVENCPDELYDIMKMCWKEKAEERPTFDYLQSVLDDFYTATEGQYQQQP", "experiment": "Inhibition of LYN"}, "[19]": {"biological_target": "Receptor-type tyrosine-protein kinase FLT3 (Homo sapiens, UniProt P36888)", "experiment": "Inhibition of Flt3"}, "[20]": {"biological_target": "Mitogen-activated protein kinase 10 (Homo sapiens, UniProt P53779)", "experiment": "Inhibition of JNK3"}, "[21]": {"experiment": "Oral bioavailability in mouse at 10 mg/kg", "assay_type": "ADME, organism-based", "conditions": "in vivo"}, "[22]": {"biological_target": "Tyrosine-protein kinase JAK2 (Homo sapiens, UniProt O60674)", "experiment": "Inhibition of JAK2"}, "[23]": {"biological_target": "Cyclin-dependent kinase 2 (Homo sapiens, UniProt P24941)", "experiment": "Inhibition of CDK2"}, "[24]": {"biological_target": "Serine/threonine-protein kinase PLK1 (Homo sapiens, UniProt P53350)", "experiment": "Inhibition of Plk"}, "[25]": {"biological_target": "Protein kinase C beta type (Homo sapiens, UniProt P05771)", "experiment": "Inhibition of PKCbeta"}, "[26]": {"biological_target": "Tyrosine-protein kinase Fyn (Homo sapiens, UniProt P06241)", "sequence (P06241 whole entry)": "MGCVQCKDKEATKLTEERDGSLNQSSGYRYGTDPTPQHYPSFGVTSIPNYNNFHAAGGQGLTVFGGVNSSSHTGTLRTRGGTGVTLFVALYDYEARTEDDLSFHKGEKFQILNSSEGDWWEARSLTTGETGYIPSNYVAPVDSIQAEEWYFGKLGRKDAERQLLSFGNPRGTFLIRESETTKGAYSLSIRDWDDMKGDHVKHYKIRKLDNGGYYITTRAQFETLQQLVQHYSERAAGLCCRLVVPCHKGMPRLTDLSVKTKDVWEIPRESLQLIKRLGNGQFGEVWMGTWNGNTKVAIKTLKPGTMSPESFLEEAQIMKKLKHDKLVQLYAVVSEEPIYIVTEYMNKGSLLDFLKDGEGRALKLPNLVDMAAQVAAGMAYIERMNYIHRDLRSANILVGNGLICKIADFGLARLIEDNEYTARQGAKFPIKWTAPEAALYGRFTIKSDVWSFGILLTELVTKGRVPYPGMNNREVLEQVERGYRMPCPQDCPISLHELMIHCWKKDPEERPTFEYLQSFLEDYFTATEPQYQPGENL", "experiment": "Inhibition of FYN"}, "[27]": {"experiment": "Clearance in mouse at 3 mg/kg, iv and 10 mg/kg, po", "assay_type": "ADME, organism-based", "conditions": "in vivo"}, "[28]": {"experiment": "Mean residence time in mouse at 3 mg/kg, iv and 10 mg/kg, po", "assay_type": "ADME, organism-based", "conditions": "in vivo"}, "[29]": {"tested_on": "Plasma", "experiment": "fCmax in Staphlyococcal enterotoxin B challenged Balb/c mouse plasma at 100 mg/kg, po after 2 hrs", "assay_type": "ADME, organism-based", "parameters": "dose 100 mg/kg, route oral", "conditions": "in vivo"}, "[30]": {"biological_target": "RAF proto-oncogene serine/threonine-protein kinase (Homo sapiens, UniProt P04049)", "experiment": "Inhibition of c-Raf"}, "[31]": {"biological_target": "Tyrosine-protein kinase ZAP-70 (Homo sapiens, UniProt P43403)", "experiment": "Inhibition of ZAP70"}, "[32]": {"experiment": "Apparent volume of distribution in mouse at 3 mg/kg, iv and 10 mg/kg, po", "assay_type": "ADME, organism-based", "conditions": "in vivo, read-out: Vz"}, "[33]": {"experiment": "Volume of distribution at steady state in mouse at 3 mg/kg, iv and 10 mg/kg, po", "assay_type": "ADME, organism-based", "conditions": "in vivo, read-out: Vdss"}, "[34]": {"biological_target": "Tyrosine-protein kinase Lck (Homo sapiens, UniProt P06239)", "experiment": "Inhibition of LCK"}},
  "data": [
    {"smiles": "CC(C)C[C@H]1CN(c2cccc(C(=O)c3cccnc3N)n2)CCN1", "values": [
      {"measurement": "Ki", "setting": "[1]", "result": 3, "unit": "nM"},
      {"measurement": "Ratio Ki", "setting": "[2]", "result": 143},
      {"measurement": "Ki", "setting": "[3]", "result": 20, "unit": "nM"},
      {"measurement": "Ratio Ki", "setting": "[4]", "result": "> 1400"},
      {"measurement": "Ki", "setting": "[5]", "result": 54, "unit": "nM"},
      {"measurement": "Ratio Ki", "setting": "[6]", "result": 60},
      {"measurement": "IC50", "setting": "[7]", "result": 165, "unit": "nM"}
    ]},
    {"smiles": "Nc1ncccc1C(=O)c1cccc(N2CCCNCC2)n1", "values": [
      {"measurement": "Papp A→B", "setting": "[8]", "result": 9, "unit": "×10⁻⁶ cm/s"},
      {"measurement": "Papp B→A", "setting": "[9]", "result": 11, "unit": "×10⁻⁶ cm/s"}
    ]},
    {"smiles": "Nc1ncccc1C(=O)c1cccc(N2CCC(N)C2)n1", "note": "(configuration not stated)", "values": [
      {"measurement": "Ki", "setting": "[1]", "result": 1520, "unit": "nM"}
    ]},
    {"smiles": "CC(C)C[C@H]1CN(c2ccc(C(F)(F)F)c(C(=O)c3cccnc3N)n2)CCN1", "values": [
      {"measurement": "Ki", "setting": "[1]", "result": 3, "unit": "nM"},
      {"measurement": "Ki", "setting": "[10]", "result": "> 4000", "unit": "nM"},
      {"measurement": "half-life", "setting": "[11]", "result": 1.3, "unit": "h"},
      {"measurement": "Ki", "setting": "[12]", "result": "> 4000", "unit": "nM"},
      {"measurement": "IC50", "setting": "[13]", "result": "> 2000", "unit": "nM"},
      {"measurement": "Ki", "setting": "[14]", "result": "> 4000", "unit": "nM"},
      {"measurement": "IC50", "setting": "[15]", "result": "> 2000", "unit": "nM"},
      {"measurement": "Ki", "setting": "[16]", "result": 17, "unit": "nM"},
      {"measurement": "Ki", "setting": "[17]", "result": "> 4000", "unit": "nM"},
      {"measurement": "IC50", "setting": "[18]", "result": "> 2000", "unit": "nM"},
      {"measurement": "Ki", "setting": "[19]", "result": 580, "unit": "nM"},
      {"measurement": "Ki", "setting": "[3]", "result": 37, "unit": "nM"},
      {"measurement": "Ki", "setting": "[20]", "result": "> 4000", "unit": "nM"},
      {"measurement": "bioavailability", "setting": "[21]", "result": 45, "unit": "%"},
      {"measurement": "Ki", "setting": "[22]", "result": "> 4000", "unit": "nM"},
      {"measurement": "Ki", "setting": "[23]", "result": "> 4000", "unit": "nM"},
      {"measurement": "Ki", "setting": "[24]", "result": "> 4000", "unit": "nM"},
      {"measurement": "Ki", "setting": "[5]", "result": 76, "unit": "nM"},
      {"measurement": "Ki", "setting": "[25]", "result": 260, "unit": "nM"},
      {"measurement": "IC50", "setting": "[26]", "result": "> 2000", "unit": "nM"},
      {"measurement": "clearance", "setting": "[27]", "result": 203, "unit": "mL/min/kg"},
      {"measurement": "MRT", "setting": "[28]", "result": 1.4, "unit": "h"},
      {"measurement": "fCmax", "setting": "[29]", "result": 150, "unit": "nM"},
      {"measurement": "IC50", "setting": "[7]", "result": 52, "unit": "nM"},
      {"measurement": "IC50", "setting": "[30]", "result": "> 2000", "unit": "nM"},
      {"measurement": "IC50", "setting": "[31]", "result": "> 2000", "unit": "nM"},
      {"measurement": "Vd", "setting": "[32]", "result": 19.7, "unit": "L/kg"},
      {"measurement": "Vd", "setting": "[33]", "result": 15.8, "unit": "L/kg"},
      {"measurement": "IC50", "setting": "[34]", "result": "> 2000", "unit": "nM"}
    ]},
    {"smiles": "Cc1cc(C(=O)c2cccnc2N)nc(N2CCN[C@@H](CC(C)C)C2)c1", "values": [
      {"measurement": "Ki", "setting": "[5]", "result": 459, "unit": "nM"}
    ]},
    {"smiles": "CC(C)C[C@H]1CN(c2ccc(Cl)c(C(=O)c3cccnc3N)n2)CCN1", "values": [
      {"measurement": "Ki", "setting": "[1]", "result": 2, "unit": "nM"},
      {"measurement": "Ratio Ki", "setting": "[2]", "result": 255},
      {"measurement": "Ki", "setting": "[3]", "result": 22, "unit": "nM"},
      {"measurement": "Ratio Ki", "setting": "[4]", "result": "> 4000"},
      {"measurement": "Ki", "setting": "[5]", "result": 49, "unit": "nM"},
      {"measurement": "Ratio Ki", "setting": "[6]", "result": 38},
      {"measurement": "IC50", "setting": "[7]", "result": 58, "unit": "nM"}
    ]},
    {"smiles": "CC(C)C[C@H]1CN(c2ccc(Cc3ccccc3)c(C(=O)c3cccnc3N)n2)CCN1", "values": [
      {"measurement": "Ki", "setting": "[5]", "result": "> 1250", "unit": "nM"}
    ]},
    {"smiles": "CCCc1ccc(N2CCN[C@@H](CC(C)C)C2)nc1C(=O)c1cccnc1N", "values": [
      {"measurement": "Ki", "setting": "[5]", "result": 1230, "unit": "nM"}
    ]},
    {"smiles": "CC(C)C[C@H]1CN(c2ccc(OC(F)F)c(C(=O)c3cccnc3N)n2)CCN1", "values": [
      {"measurement": "Ki", "setting": "[1]", "result": 7, "unit": "nM"},
      {"measurement": "Ratio Ki", "setting": "[2]", "result": "> 570"},
      {"measurement": "Ki", "setting": "[3]", "result": 87, "unit": "nM"},
      {"measurement": "Ratio Ki", "setting": "[4]", "result": "> 570"},
      {"measurement": "Ki", "setting": "[5]", "result": 459, "unit": "nM"},
      {"measurement": "Ratio Ki", "setting": "[6]", "result": 84},
      {"measurement": "IC50", "setting": "[7]", "result": 229, "unit": "nM"}
    ]},
    {"smiles": "CC(C)C[C@H]1CN(c2ccc(C3CC3)c(C(=O)c3cccnc3N)n2)CCN1", "values": [
      {"measurement": "Ki", "setting": "[5]", "result": 2650, "unit": "nM"}
    ]}
  ]
}
